This is an account of results in ChEMBL document CHEMBL3286197, “Synthesis and structure-activity relationship of cyclopentenone oximes as novel inhibitors of the production of tumor necrosis factor-α” (Bioorg Med Chem Lett, 2014).

Broadly, the IC50 is the midpoint of a concentration-inhibition curve.

The subject of assay [1] is PBMC. The experiment in a line: Inhibition of LPS-induced TNF-alpha production in rat PBMC.
For assay [2], the system named is PBMC. The experiment in a line: Inhibition of LPS-induced TNF-alpha production in human PBMC. Format: functional, cell-based.

`O/N=C1\CCC(C2CCCCC2)=C1c1ccc(F)c(F)c1` registered an IC50 in the assay with PBMC [1] of 340 nM. With `O/N=C1\CCC(C2CCCC2)=C1c1ccc(F)cc1`, in the assay with PBMC [1], half-maximal inhibition (IC50) was put at 460 nM. For the compound `O/N=C1\CCC(C2CCCC2)=C1c1ccc(F)c(F)c1`, the values for the IC50 in the assay with PBMC [2] and with PBMC [1] were 260 nM and 130 nM, respectively.

`O/N=C1\CCC(C2CCCC2)=C1c1ccc2c(c1)OCO2` showed an IC50 with PBMC [1] of 350 nM. The same measure, in the same setting: next, `O/N=C1\CCC(C2CCCC2)=C1c1cccc(O)c1`: 6220 nM.

Turning to `O/N=C1\CCC(C2CCCC2)=C1c1cccc(C(F)(F)F)c1`, in the assay on PBMC [1], the IC50 amounted to 3070 nM. Still for that read-out and setting: next, `O/N=C1\CCC(C2CCCCC2)=C1c1ccc(F)cc1`: 1240 nM; `O/N=C1\CCC(C2CCCCC2)=C1c1ccc(F)c(Cl)c1`: 420 nM. For `CCCCCC1=C(c2ccc(F)cc2)/C(=N/O)CC1`, the IC50 was 4590 nM with PBMC [2] and 3830 nM with PBMC [1]. In the assay with PBMC [1], `CCCCCC1=C(c2ccc(F)c(F)c2)/C(=N/O)CC1` registered an IC50 of 3650 nM. Regarding `CCCCCC1=C(c2cccnc2)/C(=N/O)CC1`, it took 14100 nM to reach half-maximal inhibition in the assay with PBMC [1] (IC50). Still for that read-out and setting: next, `CCCCC1=C(c2ccc(F)cc2)/C(=N/O)CC1`: 7880 nM. Regarding `CCCCC1=C(c2ccc3c(c2)OCO3)/C(=N/O)CC1`, the IC50 with PBMC [2] was found to be 2920 nM; in the assay on PBMC [1] it was 2520 nM. Compound `CCCC1=C(c2ccc(F)cc2)/C(=N/O)CC1` had an IC50 with PBMC [1] of 2660 nM. In turn, `CCCC1=C(c2ccc(F)c(F)c2)/C(=N/O)CC1` yielded an IC50 in the assay with PBMC [1] of 720 nM. The same measure, in the same setting: next, `CCC1=C(c2ccc(F)c(F)c2)/C(=N/O)CC1`: 4560 nM; `CC1=C(c2ccc(F)c(F)c2)/C(=N/O)CC1`: 48700 nM. As to `COc1ccc(C2CNC(=O)C2)cc1OC1CCCC1` (configuration not stated) [ROLIPRAM], the half-inhibitory concentration (IC50) with PBMC [2] and in the assay on PBMC [1] was 270 nM in each case.
